Assay results published in US7029713B2, “Peptide extract of lupine and pharmaceutical or cosmetic or nutritional composition comprising the same” (Laboratoires Pharmascience, priority 1999, dated 2006).

How the values were obtained:
[1] = target: T1, purified human MMP-2 (Homo sapiens, UniProt P08253); assay: Anti-MMP-2 activity, DQ-gelatin fluorimetry; type: biochemical
T1 construct: purchased BOEHRINGER MANNHEIM; host or cells: purified from human fibrosarcoma (natural, not recombinant)
T1 sequence (P08253 110-660): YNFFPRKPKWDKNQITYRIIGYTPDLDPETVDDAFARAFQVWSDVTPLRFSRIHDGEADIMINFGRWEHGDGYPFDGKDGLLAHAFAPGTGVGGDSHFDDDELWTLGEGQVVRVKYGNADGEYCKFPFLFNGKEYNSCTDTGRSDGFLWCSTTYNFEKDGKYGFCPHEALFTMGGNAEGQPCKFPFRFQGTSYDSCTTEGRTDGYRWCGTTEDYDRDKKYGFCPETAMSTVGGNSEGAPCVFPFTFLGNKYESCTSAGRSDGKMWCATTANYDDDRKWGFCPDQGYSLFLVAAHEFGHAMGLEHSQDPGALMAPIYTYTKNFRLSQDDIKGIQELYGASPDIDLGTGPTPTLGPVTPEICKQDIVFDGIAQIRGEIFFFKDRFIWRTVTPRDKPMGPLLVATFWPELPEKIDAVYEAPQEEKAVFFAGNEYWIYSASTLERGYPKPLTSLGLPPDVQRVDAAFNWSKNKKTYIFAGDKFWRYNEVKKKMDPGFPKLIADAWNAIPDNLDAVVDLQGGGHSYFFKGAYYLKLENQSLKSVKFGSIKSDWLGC
Protocol: (§1) The anti-MMP-2 and anti-MMP-9 activity of the test products was measured in vitro in a biochemical model of the screening type, based on the use of a purified human MMP-2 and of a recombinant human MMP-9 and of the substrate for the latter, gelatin conjugated to fluorescein (EnzChek™ gelatinase/collagenase kit, MOLECULAR PROBES).
The MMP-2 purified from human fibrosarcoma came from BOEHRINGER MANNHEIM.
(§2) The DQ-gelatin purified from porcine skin and conjugated to fluorescein was supplied in the EnzChek™ gelatinase/collagenase kit (MOLECULAR PROBES).
The reaction buffer for studying the activity of MMP-2 (RBf1) consisted of 50 mM of Tris-HCl, 0.05% (w/v) of Triton X100 and 5 mM of CaCl2, pH 7.5.
(§3) 1,10-Phenanthroline was solubilized in the reaction buffers RBf1 and RBf2. It was tested at 8 and 80 μg/ml.
(§4) Peptide extracts A, B and C were solubilized in the reaction buffers RBf1 and RBf2. They were tested at 0.01; 0.1 and 1% (w/v). […]
(§5) After 24 hours, the signal corresponding to the degradation of the DQ-gelatin was measured by fluorimetry (excitation: 485 nm and emission: 595 nm) For each sample, the value obtained for the “samples without enzyme” was subtracted.
(§6) The results were expressed as fluorescence units per sample and as percentage variation relative to the control group. […]

[2] = target: T2, recombinant human MMP-9 (Homo sapiens, UniProt P14780); assay: Anti-MMP-9 activity, DQ-gelatin fluorimetry; type: biochemical
T2 construct: purchased R&D SYSTEMS
T2 sequence (P14780 94-707): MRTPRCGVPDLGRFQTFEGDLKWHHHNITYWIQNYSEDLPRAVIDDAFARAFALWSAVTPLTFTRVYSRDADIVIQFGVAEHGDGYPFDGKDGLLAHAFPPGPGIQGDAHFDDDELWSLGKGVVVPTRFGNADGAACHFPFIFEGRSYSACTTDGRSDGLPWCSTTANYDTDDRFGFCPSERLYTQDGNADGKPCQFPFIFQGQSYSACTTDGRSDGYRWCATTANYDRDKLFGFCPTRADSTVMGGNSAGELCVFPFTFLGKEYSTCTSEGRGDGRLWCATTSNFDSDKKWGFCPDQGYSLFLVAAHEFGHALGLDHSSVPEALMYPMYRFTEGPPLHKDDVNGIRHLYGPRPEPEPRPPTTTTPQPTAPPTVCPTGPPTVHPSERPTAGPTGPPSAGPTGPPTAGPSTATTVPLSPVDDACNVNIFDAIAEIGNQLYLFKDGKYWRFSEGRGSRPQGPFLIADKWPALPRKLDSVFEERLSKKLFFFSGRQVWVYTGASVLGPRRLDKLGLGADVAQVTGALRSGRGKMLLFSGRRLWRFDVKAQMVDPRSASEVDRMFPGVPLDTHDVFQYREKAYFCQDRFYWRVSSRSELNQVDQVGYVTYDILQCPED
Protocol: as §1
The recombinant human MMP-9 came from R&D SYSTEMS.
as §2
The reaction buffer for studying the activity of MMP-9 (RBf2) consisted of 50 mM of Tris-HCl, 0.05% (w/v) of Brij 35 and 5 mM of CaCl2, pH 7.4.
as §3, §4, §5, §6

[3] = tested on: MMP-1 in human fibroblasts irradiated with UVA rays; assay: Amount of MMP-1 secreted by UVA-irradiated human dermal fibroblasts (ELISA); type: cell-based; details: Fibroblast, light or radiation study, 80 μg/ml, read-out: inhibition of the secretion of MMP-1 by the irradiated fibroblasts
Protocol: (§7) The study was carried out on human dermal fibroblasts in monolayer culture. The cells were pre-incubated for 1 hour at 37° C. in the presence of the reference products and of the test product. Then, the cells were irradiated with a single dose of 10 J/cm^2 of UVA, in the presence of the product to be tested and of the reference products.
(§8) Immediately after irradiation, the cells were incubated for 48 h at 37° C., still in the presence of the product to be tested and of the reference products.
(§9) The various MMPs are tested in the culture media using specific ELISA kits (Amersham).
(§10) 1,10-Phenanthroline, which is a nonspecific inhibitor of MMPs, and was tested at 80 μg/ml, was used as a reference product.
(§11) A 10 μg/ml retinoic acid+10 ng/ml EGF mixture was used for its abilities to induce TIMP1 (TIMP1, Tissue Inhibitor of MMP, physiological inhibitor of MMPs).
(§12) A stock solution containing 10% (w/v) of lupin peptides was prepared in deionized water. Using this solution, dilutions were prepared in the fibroblast culture medium. The peptide extract of lupin was tested at 0.5; 1 and 2% (v/v).
(§13) Irradiated and nonirradiated control cultures were incubated in parallel, in the absence of the reference products and of the test product. […]
(§14) They are given in the table below and the results are expressed as % relative to the “irradiated cells” group.

[4] = tested on: MMP-9 in human fibroblasts irradiated with UVA rays; assay: Amount of MMP-9 secreted by UVA-irradiated human dermal fibroblasts (ELISA); type: cell-based; details: Fibroblast, light or radiation study, 80 μg/ml, read-out: inhibition of the secretion of MMP-9 by the irradiated fibroblasts
Protocol: as §7, §8, §9, §10, §11, §12, §13, §14

[5] = tested on: MMP-3 in human fibroblasts irradiated with UVA rays; assay: Amount of MMP-3 secreted by UVA-irradiated human dermal fibroblasts (ELISA); type: cell-based; details: Fibroblast, light or radiation study, 80 μg/ml, read-out: inhibition of the secretion of MMP-3 by the irradiated fibroblasts
Protocol: as §7, §8, §9, §10, §11, §12, §13, §14

[6] = tested on: purified collagenase (type III, fraction A); assay: Anticollagenase activity in organotypic model of human skin sections (Masson trichrome, morphology and image analysis); type: biochemical; design: key to Enzymatic digestion (morphological observation): 0: zero enzymatic digestion; +: weak enzymatic digestion; ++: average enzymatic digestion; +++: strong enzymatic digestion; details: phosphoramidon 10^−3 M; collagenase 50 IU/ml, 3 hours 37° C.
Protocol: The anticollagenase activity of a test product can be studied in vitro in an organotypic model of human skin. The principle of the test is as follows: application of purified collagenase to sections is accompanied by degradation of the endogenous collagen fibers. The collagen fibers are then stained with Masson trichrome. The digestion of the endogenous collagen fibers by the purified collagenase is evaluated qualitatively by morphological observation and quantitatively by image analysis. A product which has anticollagenase activity will partially or totally preserve the integrity of the collagen fibers placed in the presence of the enzyme.
Three dilutions were tested: 0.01; 0.1 and 1% (v/v). […]
After incubation, the sections were rinsed with the incubation medium and stained with Masson trichrome. The activity of the enzyme in the presence and absence of the extract, of the ethanol or of the reference product was evaluated by microscopic observation and scored according to the following scheme:
The activity of the collagenase in the presence and absence of the test products, of the ethanol or of the reference product was evaluated by image analysis. […] The results were expressed as a percentage of intact collagen fibers per optical field. […]
For the reference product (directly taken up in the vehicle), the percentage inhibition is calculated using the following formula: […]

Structure (SMILES) | inhibition at 8 µg/mL ([1]; 8 μg/ml) | inhibition at 80 µg/mL ([1]; 80 μg/ml) | inhibition at 8 µg/mL ([2]; 8 μg/ml) | inhibition at 80 µg/mL ([2]; 80 μg/ml) | inhibition at 80 µg/mL [3] | inhibition at 80 µg/mL [4] | inhibition at 80 µg/mL [5] | % inhibition of the collagenase activity (image analysis) [6] | Enzymatic digestion (morphological observation) [6]
c1cnc2c(c1)ccc1cccnc12 [1,10-phenanthroline] | 32% | 73% | 80% | 76% | 99% | 92% | 97% | – | –
CC(C)C[C@H](NP(=O)(O)O[C@@H]1O[C@@H](C)[C@H](O)[C@@H](O)[C@H]1O)C(=O)N[C@@H](Cc1c[nH]c2ccccc12)C(=O)O [Phosphoramidon] | – | – | – | – | – | – | – | 16% | +
